Laboratory results published in patent publication US20050080140A1, “Method for treating or preventing inflammatory disorders” (AnGes MG, Inc., priority 2003, published 2005).
“Also recorded” adds a separate entry of the source.

Key:
[1] = system: adhesion between human vascular endothelial cells and monocytic leukocyte U937 cells; experiment: Adherence assay of U937 cells to endothelial monolayers; assay type: cell-based; details: HUVEC
Description: HUVEC (2.5×10^4 cells/cm^2) were cultured in 12-well plates. After 24 h, confluent monolayers were used for adherence assays. Monolayers were preincubated in EGM-2 containing 2% FBS, 0 or 10 ng/ml TNF-α, 0 or 10 ng/ml IL-13 and 0 or 10 μM cPGI with or without anti-IL-13 monoclonal antibody (0.5 μg/ml) at 37° C. for 0 to 24 h. Human monocyte leukocyte U937 cells were cultured in RPMI 1640 (Gibco-Invitrogen) containing 10% FBS, 100 U/ml penicillin and […] streptomycin , labeled with 2.5 μM calcein-AM (Molecular Probes, Eugene, Oreg.) at room temperature for 45 min, washed and resuspended in serum-free EGM-2. The calcein-labeled U937 cells (8×10^4 cells/well) were added to pretreated endothelial cells and incubated with cPGI (0, 10 μM), recombinant IL-13 (0, 10 ng/ml) and anti-IL-13 monoclonal antibody (0, 0.5 μg/ml). U937 cells were allowed to adhere to pretreated endothelial cells for 30 min at 37° C. Adherence was assessed with a fluorescence image analyzer (FLA-2000; Fujifilm, Tokyo, Japan). Plates were scanned before and after washing for total and adherent cells, respectively, and relative adherence was calculated (fold of control).

[2] = system: IL-13; experiment: IL-13 ELISA of culture medium of human vascular endothelial cells; assay type: cell-based; details: 24 h; for endogenous IL-13 expression in PGI2-deprived cells: HUVEC treated with PGIS siRNA, cPGI 10 μM, FIG. 6C
Description: Human vascular endothelial cells (1.2×10^4 cells/cm^2) were cultured in EGM-2 containing 2% FBS and several concentrations of cPGI with or without TNF-α for 24 h. Incubation media were collected and stored at −80° C. before assay. Amounts of IL-13 were measured with human IL-13 ELISA system (Amersham Pharmacia Biotech, Buckinghamshire, UK) and amounts of PGI2 were measured as the amounts of 6-keto-PGI1α, a stable metabolite of PGI2, with 6-keto-PGI1α ELISA kit (Cayman Chemical Co., Ann Arbor, Mich.) according to the manufacturers' instructions.
siRNA duplexes with the following sense and antisense sequences were made: PGIS1, 5′-[…]-3′ (SEQ ID NO: 12; sense) and 5′-[…]-3′ (SEQ ID NO: 13; antisense); PGIS2, 5′-[…]-3′ (SEQ ID NO: 14; sense) and 5′-[…]-3′ (SEQ ID NO: 15; antisense); PGIS3, 5′-[…]-3′ (SEQ ID NO: 16; sense) and 5′-[…] (SEQ ID NO: 17; antisense); and PGIS4, 5′-[…]-3′ (SEQ ID NO:, 18; sense) and 5′-[…]-3′ (SEQ ID NO: 19; antisense). siRNAs were synthesized and annealed by Dharmacon Research Inc. (Lafayette, CO). Control non-silencing siRNA, a duplex of sense (5′-UUCUCCGAACGUGUCACGUdTdT-3′; SEQ ID NO: 20) and antisense (5′-ACGUGACACGUUCGGAGAAdTdT-3′; SEQ ID NO: 21) sequences, was purchase from Qiagen (Valencia, Calif.). The cells were initially transfected with 200 pmol per well of the annealed RNA mixture or the same amount of control siRNA using LipofectAMINE2000 (Invitrogen), and 12 h later secondly transfected with the same amount of siRNAs using HVJ-liposome transfection kit (GenomeONE; Ishihara Sangyo, Osaka, Japan) according to the manufacturers' instructions. The cells were retransfected with the siRNAs every 3 days using LipofectAMINE2000 and HVJ-liposome, and used for analyses 10 days after transfection. Microsomal fractions of the cells were prepared and analyzed by immunoblotting with anti-PGIS P4 polyclonal antibody as described previously (Hatae et al., J. Biol. Chem. (2001) 276: 46260-7). The cells treated with siRNAs for 10 days were cultured in fresh EGM-2 containing 2% FBS and TNF-α (0, 10 ng/ml). with or without cPGI (10 μM) for 24 h. The incubation media were collected, and amounts of 6-keto-PGI1α or IL-13 were measured with ELISA kit.

**Q.** For `CCCCC[C@H](O)/C=C/[C@@H]1[C@H]2C/C(=C/CCCC(=O)O)C[C@H]2C[C@H]1O` [cPGI, carbaprostacyclin], which “TNF-α-induced monocytic leukocyte-endothelial cell adhesion” value ([1]; TNF-α 10 ng/ml plus antibody 0.5 μg/ml, cPGI 10 μM or IL-13 10 ng/ml, 24 h, FIG. 4D lanes 3-5) is on record?
**A.** Its value is “inhibited”.

**Q.** And the “adhesion over time, TNF-α pretreatment in the presence of cPGI” value ([1]; TNF-α 10 ng/ml, cPGI 10 μM, 0 h to 24 h, FIG. 4E)?
**A.** Its value is “dramatically inhibited”.

**Q.** And the “endogenous IL-13 expression in PGI2-deprived cells” value [2]?
**A.** Its value is “significantly increased”.

**Q.** What about the “endogenous IL-13 expression in PGI2-deprived cells” value ([2]; listed as carbaprostacyclin) of the same molecule?
**A.** The value was “significantly induced”.

**Q.** And the “production of IL-13, exogenous cPGI added to TNF-α” value ([2]; HUVEC, TNF-α 0-10 ng/ml with cPGI 0, 2 or 10 μM, dose-dependent, FIG. 4C)?
**A.** The value was “enhanced”.

**Q.** What about the “IL-13 protein in the culture medium (ELISA)” value ([2]; HUVEC, cPGI 0, 1, 10 and 100 μM, FIG. 1B) of the same molecule?
**A.** Its value is “detectable; also recorded: dose-dependent”.
